# Source: publication PMC1933452, “Molecular Basis of Resistance to Muramidase and Cationic Antimicrobial Peptide Activity of Lysozyme in Staphylococci” (PLoS Pathogens, 2007)
# Values joined by “and” are separate entries in the source; they are usually repeats but may differ in a detail not shown here. Equal values may be shown once. Read-outs that look alike come from different tables or passages of the source. Where a SMILES comes first, the peptide text is derived from it. Bridges are numbered along the chain shown (N, C = ends). Where no end group is shown, it is not given here. [ ]: non-standard residue; d: D form. The star is where a group is joined. X1 = CC[C@H](C)CCCCC(=O)*; Dab = NCC[C@H](N)C(=O)O
# Assays:
# WT SA113 = experiment: Effects of cationic agents on exponential growth, WT; assay type: cell-based, Staphylococcus aureus; details: WT SA113, BM 37 °C, agent added at OD578nm 1.0; Lys or heat-inactivated Lys 300 μg/ml, LP9 200 μg/ml, PMB 20 μg/ml, Gdm 8 μg/ml
# Method: (§1) Overnight cultures were diluted to an OD578nm of 0.1 in 50 ml of BM and the cultures were incubated with shaking at 37 °C. OD was determined every hour. Ten milliliters of each culture were transferred into a new 100-ml flask when the cultures reached an OD578nm of nearly 1.0. Then, cationic agents, such as hen egg-white lysozyme and human lysozyme (Sigma-Aldrich, http://www.sigmaaldrich.com/), LP9 (a lysozyme-derived 9-aa peptide, 107R-A-W-V-A-W-R-N-R115–NH2) (EMC, http://www.microcollections.de/), polymyxin B (Sigma-Aldrich), gallidermin (Genmedics, http://www.genmedics.com/), or mutanolysin (Sigma), were added. Lysozyme was inactivated by heating for 1 h at 100 °C and placed on ice. The OD578nm of all cultures was measured hourly up to 7–8 h and after 24 h.
# oatA mutant = experiment: Effects of cationic agents on exponential growth, oatA mutant; assay type: cell-based, Staphylococcus aureus; details: BM 37 °C, agent added at OD578nm 1.0, Lys or heat-inactivated Lys 300 μg/ml, LP9 200 μg/ml
# Method: as §1
# graRS mutant = experiment: Effects of cationic agents on exponential growth, graRS mutant; assay type: cell-based, Staphylococcus aureus; details: PMB 20 μg/ml; for Susceptibility of growing culture (OD578nm) / Resumption of growth in the presence of the CAMP: graRS mutant, Gdm 8 μg/ml; for Susceptibility of growing culture (OD578nm): BM 37 °C, agent added at OD578nm 1.0, Lys or heat-inactivated Lys 300 μg/ml, LP9 200 μg/ml; for Resumption of growth in the presence of the CAMP: up to 24 h
# Method: as §1
# oatA/graRS mutant = experiment: Effects of cationic agents on exponential growth, oatA/graRS mutant; assay type: cell-based, Staphylococcus aureus; details: BM 37 °C, agent added at OD578nm 1.0, Lys 50 μg/ml, heat-inactivated Lys 300 μg/ml, LP9 200 μg/ml
# Method: as §1
# dltA mutant = experiment: Effects of cationic agents on exponential growth, dltA mutant; assay type: cell-based, Staphylococcus aureus; details: LP9 200 μg/ml, PMB 20 μg/ml, Gdm 8 μg/ml; for Susceptibility of growing culture (OD578nm): BM 37 °C, agent added at OD578nm 1.0, Lys or heat-inactivated Lys 300 μg/ml; for Resumption of growth in the presence of the CAMP: up to 24 h
# Method: as §1
# [1] = test system: PG isolated from oatA mutant; experiment: Turbidometric assay of PG, oatA mutant; assay type: biochemical, Staphylococcus aureus; details: PG of oatA mutant 0.5 mg/ml, 300 μg/ml, 80 mM PBS pH 6.4, 4 h
# Method: (§2) One liter of BM was inoculated with an overnight culture of the WT SA113 or the mutants. Strains were grown for 12 h with shaking at 37 °C. Cells were centrifuged, washed two times with cold 0.9% NaCl, diluted in 0.9% NaCl, and boiled for 20 min. After the cells were chilled on ice, they were again centrifuged and washed twice with 0.9% NaCl. The cells were disrupted in a mechanical grinding device using glass beads ∅150–212 μm (Sigma-Aldrich) at 4 °C, centrifuged and washed two times with cold H2Obidest, boiled for 30 min in 2% SDS to remove noncovalently bound proteins, and washed four times with H2Obidest. The cell wall fragments were diluted in 0.1 M Tris/HCl (pH 6.8) and incubated with 0.5 mg/ml trypsin for 16 h at 37 °C to degrade cell-bound proteins. After centrifugation and washing with water, the PG was lyophilized.
# (§3) For analyzing the susceptibility of PG to lysozyme, we used a modified method turbidometric assay as described by Clarke. The PG of the WT SA113 and the mutants were sonicated and diluted to 0.5 mg in 1 ml of 80 mM PBS (pH 6.4). After the addition of 300 μg lysozyme per ml, the decrease in optical density was monitored at the beginning (0 h) and after 4 h at OD660nm and calculated as percentages.
# SA113 = assay type: cell-based, Staphylococcus aureus; details: for MIC: SA113, serial dilution, BM without glucose with 0.5% xylose, 37 °C, 20–24 h, mean of three to five independent experiments
# Method: (§4) The overnight cultures were diluted in BM with 0.5% xylose to a concentration of 0.5 × 10^6 CFU per ml and aliquoted in 0.5-ml samples, and cationic agents in different concentrations were added.
# graRS::erm = experiment: MIC assay, graRS mutant; assay type: cell-based, Staphylococcus aureus; details: for MIC: graRS::erm, serial dilution, BM without glucose with 0.5% xylose, 37 °C, 20–24 h, mean of three to five independent experiments; for Susceptibility of graRS mutant relative to WT: from MIC values
# Method: as §4
# oatA::kan = experiment: MIC assay, oatA mutant; assay type: cell-based, Staphylococcus aureus; details: serial dilution, BM without glucose with 0.5% xylose, 37 °C, 20–24 h, mean of three to five independent experiments
# Method: as §4
# oatA::kan/graRS::erm = experiment: MIC assay, oatA/graRS double mutant; assay type: cell-based, Staphylococcus aureus; details: for MIC: oatA::kan/graRS::erm, serial dilution, BM without glucose with 0.5% xylose, 37 °C, 20–24 h, mean of three to five independent experiments
# Method: as §4
# dltA::spc = experiment: MIC assay, dltA mutant; assay type: cell-based, Staphylococcus aureus; details: for MIC: dltA::spc, serial dilution, BM without glucose with 0.5% xylose, 37 °C, 20–24 h, mean of three to five independent experiments
# Method: as §4
# oatA::kan/dltA::spc = experiment: MIC assay, oatA/dltA double mutant; assay type: cell-based, Staphylococcus aureus; details: for MIC: oatA::kan/dltA::spc, serial dilution, BM without glucose with 0.5% xylose, 37 °C, 20–24 h, mean of three to five independent experiments
# Method: as §4
# graRS::erm (pTXgraRS) = experiment: MIC assay, complemented graRS mutant; assay type: cell-based, Staphylococcus aureus; details: for MIC: graRS::erm (pTXgraRS), serial dilution, BM without glucose with 0.5% xylose as inductor, 37 °C, 20–24 h, mean of three to five independent experiments
# Method: as §4
# SA113 (pTXgraRS) = experiment: MIC assay, WT overexpressing graRS; assay type: cell-based, Staphylococcus aureus; details: for MIC: SA113 (pTXgraRS), serial dilution, BM without glucose with 0.5% xylose as inductor, 37 °C, 20–24 h, mean of three to five independent experiments
# Method: as §4
# oatA/dltA mutant = experiment: Effects of cationic agents on exponential growth, oatA/dltA mutant; assay type: cell-based, Staphylococcus aureus; details: BM 37 °C, agent added at OD578nm 1.0, Lys 20 μg/ml, LP9 200 μg/ml
# Method: as §1
# [2] = test system: PG isolated from graRS mutant; experiment: Turbidometric assay of PG, graRS mutant; assay type: biochemical, Staphylococcus aureus; details: PG of graRS mutant 0.5 mg/ml, 300 μg lysozyme per ml, 80 mM PBS pH 6.4, 4 h
# Method: as §2, §3
# [3] = test system: PG isolated from oatA/graRS double mutant; experiment: Turbidometric assay of PG, oatA/graRS mutant; assay type: biochemical, Staphylococcus aureus; details: PG of oatA/graRS double mutant 0.5 mg/ml, 300 μg lysozyme per ml, 80 mM PBS pH 6.4, 4 h
# Method: as §2, §3
# [4] = test system: PG isolated from dltA mutant; experiment: Turbidometric assay of PG, dltA mutant; assay type: biochemical, Staphylococcus aureus; details: PG of dltA mutant 0.5 mg/ml, 300 μg lysozyme per ml, 80 mM PBS pH 6.4, 4 h
# Method: as §2, §3
Molecule,Susceptibility of growing culture (OD578nm) (WT SA113),Susceptibility of growing culture (OD578nm) (oatA mutant),Susceptibility of growing culture (OD578nm) (graRS mutant),Susceptibility of growing culture (OD578nm) (oatA/graRS mutant),Susceptibility of growing culture (OD578nm) (dltA mutant),Hydrolysis of isolated PG (decrease in OD660nm) [1],MIC (SA113; 0.5 × 10^6 CFU per ml),MIC (graRS::erm),MIC (oatA::kan),MIC (oatA::kan/graRS::erm),MIC (dltA::spc),MIC (oatA::kan/dltA::spc),MIC (graRS::erm (pTXgraRS)),MIC (SA113 (pTXgraRS)),MIC (SA113),Susceptibility of graRS mutant relative to WT (graRS::erm),Resumption of growth in the presence of the CAMP (graRS mutant),Resumption of growth in the presence of the CAMP (dltA mutant),further results
"Heat-inactivated lysozyme: Catalytic inactive lysozyme, inactivated by heating for 1 h at 100 °C",completely insensitive,no activity,does not affect,able to inhibit the growth,inhibited,no activity,–,–,–,–,–,–,–,–,–,–,–,–,–
Lysozyme,completely lysozyme resistant,only marginally affected,only marginally affected,highly susceptible,more sensitive,sensitive to the muramidase activity,">50,000 μg/ml",">50,000 μg/ml","10,000 μg/ml and 694 μM",600 μg/ml and 41.6 μM,"2,000 μg/ml and 138.8 μM",30 μg/ml and 2.08 μM,">50,000 μg/ml",">50,000 μg/ml",–,–,–,–,"Resistance at highest concentration (SA113; WT, at a concentration of 50 mg/ml): completely resistant; Resistance at highest concentration (graRS::erm; graRS mutant, at a concentration of 50 mg/ml): completely resistant; Sensitivity of oatA/graRS double mutant relative to oatA mutant (oatA::kan/graRS::erm; from MIC values): ~17 fold; Sensitivity of dltA single mutant relative to WT (dltA::spc; from MIC values): over 25 fold; Sensitivity of dltA single mutant relative to oatA single mutant (dltA::spc; from MIC values): 5 fold; Sensitivity of oatA/dltA double mutant relative to oatA single mutant (oatA::kan/dltA::spc; from MIC values): > 333 fold and 333 fold; Sensitivity of oatA/dltA double mutant relative to oatA/graRS double mutant (oatA::kan/dltA::spc; from MIC values): 20 fold; Susceptibility of growing culture (OD578nm) (oatA/dltA mutant): stays lysozyme sensitive even after 24 h; Hydrolysis of isolated PG (decrease in OD660nm) [2]: completely resistant; Hydrolysis of isolated PG (decrease in OD660nm) [3]: hydrolysed; Hydrolysis of isolated PG (decrease in OD660nm) [4]: not hydrolyzed"
"gallidermin (IASKFLCTPGCAKTGSFNSYCC; cysteine pairing not given here; also: lantibiotic; UniProt P21838 31-52, looked up) [lantibiotic, CAMP (Genmedics)]",inhibited the WT,–,immediate growth arrest,–,more susceptible,–,9 µg/mL,2.5 μg/ml and 1.14 μM,9 μg/ml and 4.1 μM,3 μg/ml and 1.36 μM,1.2 μg/ml and 0.55 μM,1.2 μg/ml and 0.55 μM,9 μg/ml and 4.1 μM,9 μg/ml and 4.1 μM,4.1 µM,4 fold,started to grow after some time,unable to resume growth,–
"CC[C@H](C)CCCCC(=O)N[C@@H](CCN)C(=O)N[C@H](C(=O)N[C@@H](CCN)C(=O)N[C@H]1CCNC(=O)[C@H]([C@@H](C)O)NC(=O)[C@H](CCN)NC(=O)[C@H](CCN)NC(=O)[C@H](CC(C)C)NC(=O)[C@@H](Cc2ccccc2)NC(=O)[C@H](CCN)NC1=O)[C@@H](C)O [Polymyxin B, polymyxin B] (X1-[Dab]T[Dab][Dab][Dab][dF]L[Dab][Dab]T; lactam 4-C (inferred); N-terminus assumed)",much less affected,–,immediate growth arrest,–,more susceptible,–,350 µg/mL,20 μg/ml and 14.4 μM,350 μg/ml and 252.5 μM,25 μg/ml and 18 μM,10 μg/ml and 7.2 μM,10 μg/ml and 7.2 μM,>800 µg/mL,>500 µg/mL,252.5 µM,17 fold,started to grow after some time,unable to resume growth,Increase in resistance by overexpression of graRS (pTXgraRS) in the graRS mutant (graRS::erm (pTXgraRS); from MIC values): approximately 2 fold; Increase in resistance by overexpression of graRS (pTXgraRS) in the WT (SA113 (pTXgraRS); from MIC values): approximately 2 fold; Growth of subculture challenged again (graRS mutant; new culture inoculated from 24-h graRS culture treated with polymyxin B): no growth retardation
